Experimental data taken from patent US6896895B2, “Carotenoid esters, carotenoid-enriched feeds, and methods of pigmenting foods and foodstuffs” (DSM IP Assets B.V., priority 2000, dated 2005).

How the values were obtained:
[1] = Carotenoid ester content in plasma, back skin and abdominal fat of broilers (HPLC); assay type: in vivo, broiler chickens (Ross 308, Ross 508); conditions: average over doses, Table 4
Experimental: (§1) Pigmentation efficacy was assessed in egg yolk, in the back skin of the broiler carcass, and in broiler shanks by reflectance colorimetry accompanied by visual scoring (Roche Colour Fan). The deposition of the ethyl-β-apo-8′-carotenoate (control) and the other carotenoid esters was determined in egg yolk and in the broiler back skin. In addition, the carotenoid levels in plasma and abdominal fat were measured.
(§2) The trials were carried out using chickens of the type Ross 308 (trials MC-24/98 and MC-02/99) and Ross 508 (trials MC-11/99, MC-16/99, MC-24/99, and MC-03/00) (Couvir de la Bohardière, F-49290 Saint Laurent de la Plaine). One-day old broiler chickens, separated by sex, were divided by weight into experimental groups of ten animals each and reared in floor pens littered with wood shavings. The chickens were fed a low carotenoid basal grower diet until day 22 (trials MC-24/98, MC-02/99, and MC-11/99) or until day 15 (trials MC-16/99, MC-24/99, and MC-03/00). The low carotenoid basal grower diet contained less than 2 mg total xanthophylls per kg of feed, and its composition is described in Table 2. For the subsequent experimental period of three weeks, the birds received the basal diet supplemented with an appropriate pigment. The feed was given in the form of crumbled pellets during the first week and as pellets thereafter. The animals had unrestricted access to feed and water. A given treatment involved one group of male and one group of female chickens. Each group of chickens was weighed at day 22 (trials MC-24/98, MC-02/99, and MC-11/99) or day 15 (trials MC-16/99, MC-24/99, and MC-03/00) and on day 43. On day 42, five chickens per group were selected at random, labelled, and blood samples were taken from the jugular vein. At the end of the experiment (day 44) the animals were slaughtered in a commercial slaughterhouse (Freyburger, Dannemarie, France). The following day, the color of the skin (hind back of carcasses) and the shanks of the labelled chicken were measured by reflectance colorimetry (Minolta CR 200 apparatus, CIE-Lab system). Samples of the dorsal skin and abdominal fat were obtained, pooled for each experimental group, and the carotenoid concentration was determined. The concentration of carotenoids in feed, plasma, skin, and abdominal fat was determined by standard procedures as described after Tables 1 and 2.
The content of the various carotenoid esters in feed was determined according to the method of Schierle, et al. (J. Schierle , N. Faccin, V. Riegert, Analytical Methods for Vitamins and Carotenoids in Feed, Revised supplement: Determination of Stabilized Apocarotenoic Ester and Canthaxanthin in Premixes and Feeds, Roche publication no. 50771 (1995), publicly available from. F. Hoffmann-La Roche Ltd., CH-4070 Basel). This method was modified in that the mobile phase of the normal-phase HPLC contained 0.5% instead of 7% acetone in n-hexane, improving the separation of the E/Z-isomers of the carotenoid esters. Peaks were related to all-E- and Z-isomers of the various carotenoid esters by chromatography of heat-isomerized solutions of the respective reference substances in n-hexane. The HPLC system was calibrated with the all-E-isomer of ethyl β-apo-8′-carotenoate. The response factor of the various derivatives was deduced from that of ethyl β-apo-8′-carotenoate taking into account the respective molecular weight. The content of the Z-isomer fractions was calculated based on the response of the all-E-isomer and using a correction factor of 1.4 to account for the lower specific absorbance of the Z-isomers.
(§3) The HPLC-system for in-feed analysis was also used to quantify the carotenoid esters in egg yolk, broiler tissues, and broiler plasma, but the extraction procedure was different for the various matrices.
For plasma extraction, 1.0 g of the well-mixed plasma sample was introduced into a 10 ml test tube with 1.0 ml of demineralized water and 4.0 ml of ethanol, and the contents mixed on a Vortex shaker. […]

[2] = tested on: skin and shanks of broilers; assay: Reflectance colorimetry and visual classification of skin and shanks of broilers; assay type: in vivo, broiler chickens (Ross 308, Ross 508); parameters: key to Shanks Visual Classification / Skin Visual Classification: −; (+); +; ++ = good color; o = orange; conditions: dry carcasses, average over doses, Table 6
Experimental: as §1, §2
The color of broiler skin and shanks was measured using a tristimulus Minolta CR-300 Chromameter with diffuse D65-illumination and a 0° viewing angle. The color of the skin was read at three different points on the back of the dry broiler carcasses and average values of the triple measurements were recorded. The color of shanks was measured using single measurements at the ball between the toes.
(§4) The color data were expressed as CIE L*a*b*-values including h*(hue) and C* (chroma). The values given in the tables per treatment and trial represent averages of color measurements of four egg yolk pools, ten broiler back skins, or ten broiler shanks (5 males and 5 females).

[3] = Carotenoid ester content and deposition rate in egg yolk of laying hens (HPLC); assay type: in vivo, laying hens (ISA Brown); conditions: egg yolk; for Deposition Rate Target Values % of Controls / Ethyl β-apo-8′-carotenoate Equivalents % of Controls: Table 8; for Deposition Rate % of Controls: Table 10
Experimental: as §1
Each year in February the pigmentation trials are started with a new flock of layers.
(§5) Preceding the trials the hens were fed a low carotenoid basal diet (produced at the CRNA) without carotenoid supplementation for at least 28 days. During the trials, the control group received the low carotenoid basal diet containing less than 2 mg total xanthophylls per kg of feed. The other animals were fed this diet supplemented with the appropriate pigments for three weeks. The diet was given to the animals ad libitum in mash form. The hens had free access to tap water.
Peaks were related to all-E- and Z-isomers of the various carotenoid esters by chromatography of heat-isomerized solutions of the respective reference substances in n-hexane. The HPLC system was calibrated with the all-E-isomer of ethyl β-apo-8′-carotenoate. The response factor of the various derivatives was deduced from that of ethyl β-apo-8′-carotenoate taking into account the respective molecular weight. The content of the Z-isomer fractions was calculated based on the response of the all-E-isomer and using a correction factor of 1.4 to account for the lower specific absorbance of the Z-isomers.
as §3
For the extraction of egg yolk, 10 g of pooled and homogenised yolk were mixed with 10 ml of demineralized water using a dispersion instrument (Polytron). 1.0 g of diluted egg yolk was introduced into a 10 ml test tube with 1.0 ml of demineralized water and 2.0 ml of ethanol, and the contents were mixed on a Vortex shaker. After addition of 4.0 ml of n-hexane, the mixture was further treated as described for plasma.

egg yolk = assay: Egg yolk colour: reflectance colorimetry and Roche Yolk Colour Fan; assay type: in vivo, laying hens (ISA Brown); conditions: egg yolk, laying hens, 5.0 mg/kg feed
Experimental: as §1
The trials were carried out following the standard experimental design used for egg yolk pigmentation trials at the Roche Research Center for Animal Nutrition (CRNA, F-68305 Village-Neuf, France). Each year in February the pigmentation trials are started with a new flock of layers. At the beginning of the trials the age of the laying hens (192 birds, type ‘ISA Brown’) were as follows:
as §5, with “water. Beside the unsupplemented control treatment, treatments were carried out involving the provision of supplemented feed, the results of these treatments being presented in Tables 7-9.” for “water.”
Egg yolk color was assessed as described by Steinberg, et al. (Arch. Geflügelk 64 (4), 180-187 (2000)). The yolks were manually separated from the whites of the eggs. The isolated yolks of three to six eggs were combined, weighed, and stirred with a glass rod until the color appeared homogeneous. The color hue was visually scored using the Roche Yolk Colour Fan (RYCF, version 1993). An aliquot of the pooled egg yolks was transferred into a glass cuvette yielding an approximately 2 cm thick layer. The color was then measured by means of a Dr. Lange Xeno Color LS 100 spectro-colorimeter with diffuse D65-illumination and a 8° viewing angle.
as §4

CC(C=CC=C(C)C=CC1=C(C)CCCC1(C)C)=CC=CC=C(C)C=CC=C(C)C(=O)OC(C)CC(C)C (stereo not drawn) [(12), 4-methyl-2-pentyl beta-apo-8′-carotenoate]
Analytical Content as Equivalent of Ethyl β-apo-8′-carotenoate in % of control Fat [1]: 49%
Analytical Content as Equivalent of Ethyl β-apo-8′-carotenoate in % of control Plasma [1]: 66%
Analytical Content as Equivalent of Ethyl β-apo-8′-carotenoate in % of control Skin [1]: 85%
Shanks Chroma C*ab % of Controls [2]: 95%
Shanks Color Hue h*ab % of Controls [2]: 101%
Shanks Visual Classification [2]: +
Skin Chroma C*ab % of Controls [2]: 91%
Skin Color Hue h*ab % of Controls [2]: 99%
Skin Visual Classification [2]: +
Deposition Rate Target Values % of Controls ([3]; trial H-25/99, 5.0 mg/kg feed): 89%
Ethyl β-apo-8′-carotenoate Equivalents % of Controls ([3]; trial H-25/99, 5.0 mg/kg feed): 79%
Deposition Rate % of Controls ([3]; trial H-25/99, 5.0 mg/kg feed): 89%
Color Fan Value % of Controls (egg yolk; trial H-25/99, Table 8): 101%
Chroma C*ab % of Controls (egg yolk; trial H-25/99, Table 10): 74%
Color Fan Value % of Controls (egg yolk; trial H-25/99, Table 10): 101%
Color Hue h*ab % of Controls (egg yolk; trial H-25/99, Table 10): 109%

CC(C=CC=C(C)C=CC1=C(C)CCCC1(C)C)=CC=CC=C(C)C=CC=C(C)C(=O)OC1CCCC1 [(15), cyclopentyl beta-apo-8′-carotenoate]
Analytical Content as Equivalent of Ethyl β-apo-8′-carotenoate in % of control Fat [1]: 50%
Analytical Content as Equivalent of Ethyl β-apo-8′-carotenoate in % of control Plasma [1]: 76%
Analytical Content as Equivalent of Ethyl β-apo-8′-carotenoate in % of control Skin [1]: 77%
Shanks Chroma C*ab % of Controls [2]: 99%
Shanks Color Hue h*ab % of Controls [2]: 100%
Shanks Visual Classification [2]: ++
Skin Chroma C*ab % of Controls [2]: 106%
Skin Color Hue h*ab % of Controls [2]: 99%
Skin Visual Classification [2]: ++
Deposition Rate Target Values % of Controls ([3]; trial H-05/00, 5.0 mg/kg feed): 95%
Ethyl β-apo-8′-carotenoate Equivalents % of Controls ([3]; trial H-05/00, 5.0 mg/kg feed): 95%
Deposition Rate % of Controls ([3]; trial H-05/00, 5.0 mg/kg feed): 95%
Color Fan Value % of Controls (egg yolk; trial H-05/00, Table 8): 116%
Chroma C*ab % of Controls (egg yolk; trial H-05/00, Table 10): 107%
Color Fan Value % of Controls (egg yolk; trial H-05/00, Table 10): 116%
Color Hue h*ab % of Controls (egg yolk; trial H-05/00, Table 10): 101%

CC(C=CC=C(C)C=CC1=C(C)CCCC1(C)C)=CC=CC=C(C)C=CC=C(C)C(=O)OC1CCCCC1 [(16), cyclohexyl beta-apo-8′-carotenoate]
Analytical Content as Equivalent of Ethyl β-apo-8′-carotenoate in % of control Fat [1]: 38%
Analytical Content as Equivalent of Ethyl β-apo-8′-carotenoate in % of control Plasma [1]: 60%
Analytical Content as Equivalent of Ethyl β-apo-8′-carotenoate in % of control Skin [1]: 44%
Shanks Chroma C*ab % of Controls [2]: 84%
Shanks Color Hue h*ab % of Controls [2]: 103%
Shanks Visual Classification [2]: (+)
Skin Chroma C*ab % of Controls [2]: 80%
Skin Color Hue h*ab % of Controls [2]: 95%
Skin Visual Classification [2]: +
Deposition Rate Target Values % of Controls ([3]; trial H-25/99, 5.0 mg/kg feed): 99%
Ethyl β-apo-8′-carotenoate Equivalents % of Controls ([3]; trial H-25/99, 5.0 mg/kg feed): 82%
Deposition Rate % of Controls ([3]; trial H-25/99, 5.0 mg/kg feed): 99%
Color Fan Value % of Controls (egg yolk; trial H-25/99, Table 8): 108%
Chroma C*ab % of Controls (egg yolk; trial H-25/99, Table 10): 112%
Color Fan Value % of Controls (egg yolk; trial H-25/99, Table 10): 108%
Color Hue h*ab % of Controls (egg yolk; trial H-25/99, Table 10): 97%
